Activity calls are given as the source filed them. The calls are words filed in the database; no cut-off is given here.
Legend:
Type in all cases: nucleic-acid assay
[1] = tested on: Nucleic Acid; assay: Inhibition of Escherichia coli pUC19 DNA photocleavage assessed as conversion of supercoiled DNA to linear form of DNA at 10 uM after 1 hr followed by irradiated for 60 mins by ethidium bromide staining in presence of 100 uM of sodium benzoate and 1 mol equivalent of copper chloride
[2] = tested on: Nucleic Acid; assay: Induction of Escherichia coli pUC19 DNA cleavage assessed as conversion of supercoiled DNA to nicked and linear form of DNA at 10 uM irradiated for 50 mins measured after 60 mins by ethidium bromide staining
[3] = tested on: Nucleic Acid; assay: Inhibition of Escherichia coli pUC19 DNA photocleavage at 10 uM after 1 hr followed by irradiated for 60 mins by ethidium bromide staining in presence of 100 uM of sodium azide
[4] = tested on: Calf thymus DNA; assay: Binding affinity to calf thymus DNA at 10 uM by UV-visible spectra analysis in presence of 1 mol equivalent of copper chloride and 260 mM of potassium chloride; conditions: Bos taurus
[5] = tested on: Nucleic Acid; assay: Inhibition of Escherichia coli pUC19 DNA photocleavage at 10 uM after 1 hr followed by irradiated for 60 mins by ethidium bromide staining in presence of 100 uM of sodium benzoate and 1 mol equivalent of copper chloride
[6] = tested on: Nucleic Acid; assay: Inhibition of Escherichia coli pUC19 DNA photocleavage assessed as conversion of supercoiled DNA to linear form of DNA at 10 uM after 1 hr followed by irradiated for 60 mins by ethidium bromide staining in presence of 100 uM of sodium azide and 1 mol equivalent of copper chloride
[7] = tested on: Nucleic Acid; assay: Inhibition of Escherichia coli pUC19 DNA photocleavage at 10 uM after 1 hr followed by irradiated for 60 mins by ethidium bromide staining in presence of 100 uM of sodium benzoate
[8] = tested on: Nucleic Acid; assay: Induction of Escherichia coli pUC19 DNA cleavage assessed as conversion of supercoiled DNA to nicked and linear form of DNA at 2 to 20 uM irradiated for 50 mins measured after 60 mins by ethidium bromide staining in presence of 1 mol equivalent of copper chloride
[9] = tested on: Nucleic Acid; assay: Induction of Escherichia coli pUC19 DNA cleavage assessed as conversion of supercoiled DNA to nicked and linear form of DNA at 10 to 30 uM after 1 hr followed by irradiated for 60 mins by ethidium bromide staining in presence of 1 mol equivalent of copper chloride and 150 mM sodium chloride and 240 mM of potassium chloride
[10] = tested on: Nucleic Acid; assay: Inhibition of Escherichia coli pUC19 DNA photocleavage assessed as conversion of supercoiled DNA to linear form of DNA at 10 uM after 1 hr followed by irradiated for 60 mins by ethidium bromide staining in presence of 100 uM of sodium benzoate
[11] = tested on: Nucleic Acid; assay: Inhibition of Escherichia coli pUC19 DNA photocleavage at 10 uM after 1 hr followed by irradiated for 60 mins by ethidium bromide staining in presence of 100 uM of sodium azide and 1 mol equivalent of copper chloride
[12] = tested on: Nucleic Acid; assay: Inhibition of Escherichia coli pUC19 DNA photocleavage assessed as conversion of supercoiled DNA to linear form of DNA at 10 uM after 1 hr followed by irradiated for 60 mins by ethidium bromide staining in presence of 100 uM of sodium azide
[13] = tested on: Calf thymus DNA; assay: Binding affinity to calf thymus DNA at 10 uM assessed as change in melting temperature in presence of copper; conditions: Bos taurus
[14] = tested on: Nucleic Acid; assay: Inhibition of Escherichia coli pUC19 DNA photocleavage assessed as conversion of supercoiled DNA to nicked form of DNA at 10 uM after 1 hr followed by irradiated for 60 mins by ethidium bromide staining in presence of 100 uM of sodium azide
[15] = tested on: Nucleic Acid; assay: Inhibition of Escherichia coli pUC19 DNA photocleavage assessed as conversion of supercoiled DNA to nicked form of DNA at 10 uM after 1 hr followed by irradiated for 60 mins by ethidium bromide staining in presence of 100 uM of sodium benzoate
[16] = tested on: Nucleic Acid; assay: Induction of Escherichia coli pUC19 DNA cleavage assessed as conversion of supercoiled DNA to nicked and linear form of DNA at 2 to 50 uM after 60 mins by ethidium bromide staining
[17] = tested on: Nucleic Acid; assay: Inhibition of Escherichia coli pUC19 DNA photocleavage assessed as conversion of supercoiled DNA to nicked form of DNA at 10 uM after 1 hr followed by irradiated for 60 mins by ethidium bromide staining in presence of 100 uM of sodium azide and 1 mol equivalent of copper chloride
[18] = tested on: Nucleic Acid; assay: Induction of Escherichia coli pUC19 DNA cleavage assessed as conversion of supercoiled DNA to nicked and linear form of DNA at 10 to 30 uM after 1 hr followed by irradiated for 60 mins by ethidium bromide staining in presence of 1 mol equivalent of copper chloride and 150 mM sodium chloride
[19] = tested on: Calf thymus DNA; assay: Binding affinity to calf thymus DNA at 10 uM assessed as change in melting temperature; conditions: Bos taurus
[20] = tested on: Nucleic Acid; assay: Inhibition of Escherichia coli pUC19 DNA photocleavage assessed as conversion of supercoiled DNA to nicked form of DNA at 10 uM after 1 hr followed by irradiated for 60 mins by ethidium bromide staining in presence of 100 uM of sodium benzoate and 1 mol equivalent of copper chloride
[21] = tested on: Nucleic Acid; assay: Induction of Escherichia coli pUC19 DNA cleavage assessed as conversion of supercoiled DNA to nicked and linear form of DNA at 10 to 30 uM after 1 hr followed by irradiated for 60 mins by ethidium bromide staining in presence of 1 mol equivalent of copper chloride and 240 mM of potassium chloride

- inhibition [1]: 88%
- Activity [2]: Active
- inhibition [3]: 34%
- Activity [4]: Active
- inhibition [5]: 0%
- inhibition [6]: 82%
- inhibition [7]: 0%
- Activity [8]: inactive
- Activity [9]: Active
- inhibition [10]: 91%
- inhibition [11]: 5%
- inhibition [12]: 80%
- Tm [13]: 80 °C
- inhibition [14]: 29%
- inhibition [15]: -10%
- Activity [16]: Active
- inhibition [17]: -1%
- Activity [18]: Active
- Tm [19]: 79 °C
- inhibition [20]: -7%
- Activity [21]: Active
SMILES: Nc1ccc2cc3ccc(NCc4cccc(CNc5ccc6cc7ccc(N)cc7nc6c5)n4)cc3nc2c1
